From paper PMC13114712, “The Influence of TDP1 Inhibitor Usnic Acid Derivative OL9-116 on the Effects of Topotecan in Human Cells” (Current Issues in Molecular Biology, 2026)

Key:
[1] = target: T1, Tyrosyl-DNA phosphodiesterase 1 (TDP1) (Homo sapiens, UniProt Q9NUW8); assay: real-time fluorimetric assay with FAM/BHQ1 oligonucleotide; V(S) kinetics; EMSA and fluorescence anisotropy show no DNA competition; type: biochemical
T1 construct: TDP1 wild type (full-length, recombinant from E. coli, pLate31-TDP1)
T1 sequence (Q9NUW8 whole entry): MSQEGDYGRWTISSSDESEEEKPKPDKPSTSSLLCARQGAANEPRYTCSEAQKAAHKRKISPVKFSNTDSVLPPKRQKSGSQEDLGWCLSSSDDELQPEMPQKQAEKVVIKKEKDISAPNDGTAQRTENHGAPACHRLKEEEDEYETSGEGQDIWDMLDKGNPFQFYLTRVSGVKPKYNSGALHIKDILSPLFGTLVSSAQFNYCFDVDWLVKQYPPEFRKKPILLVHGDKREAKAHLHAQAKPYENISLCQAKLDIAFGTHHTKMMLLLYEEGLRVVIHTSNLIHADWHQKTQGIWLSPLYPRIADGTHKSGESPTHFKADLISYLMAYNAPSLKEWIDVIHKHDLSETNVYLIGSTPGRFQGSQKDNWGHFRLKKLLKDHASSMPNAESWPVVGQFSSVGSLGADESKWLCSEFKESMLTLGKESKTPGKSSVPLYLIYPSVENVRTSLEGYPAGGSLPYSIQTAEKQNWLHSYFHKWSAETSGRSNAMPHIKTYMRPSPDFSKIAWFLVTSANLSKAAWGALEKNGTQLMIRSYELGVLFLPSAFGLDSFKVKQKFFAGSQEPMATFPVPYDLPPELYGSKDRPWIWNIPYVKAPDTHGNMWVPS

[2] = target: T2, Δ148TDP1 (Homo sapiens, UniProt Q9NUW8); assay: real-time fluorimetric assay with FAM/BHQ1 oligonucleotide; type: biochemical
T2 construct: gene TDP1; Δ148TDP1, truncated form lacking the first 148 N-terminal amino acid residues (recombinant from E. coli)
T2 sequence (Q9NUW8 149-608, stated change not applied): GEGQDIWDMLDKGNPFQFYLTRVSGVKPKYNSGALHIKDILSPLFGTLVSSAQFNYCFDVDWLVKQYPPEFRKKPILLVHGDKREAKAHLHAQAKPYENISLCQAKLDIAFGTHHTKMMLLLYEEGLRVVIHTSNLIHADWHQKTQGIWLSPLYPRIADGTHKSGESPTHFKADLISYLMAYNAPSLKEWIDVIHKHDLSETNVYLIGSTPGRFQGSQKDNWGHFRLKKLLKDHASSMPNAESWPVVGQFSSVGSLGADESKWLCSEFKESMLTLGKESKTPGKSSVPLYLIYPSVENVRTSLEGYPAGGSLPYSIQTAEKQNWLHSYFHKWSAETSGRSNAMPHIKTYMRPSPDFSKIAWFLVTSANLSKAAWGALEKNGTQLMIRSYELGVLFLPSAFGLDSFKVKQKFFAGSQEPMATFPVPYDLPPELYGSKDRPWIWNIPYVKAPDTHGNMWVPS

[3] = target: TDP1 (wild type) (Homo sapiens, UniProt Q9NUW8 1-608); assay: EMSA; no inhibitor; 0.5 uM TDP1, 0.1 uM DNA; two complexes (1:1 and 2:1); 50 mM Tris-HCl pH 8.0, 50 mM NaCl, 7 mM beta-mercaptoethanol; EMSA 10 min at 4 C, 5% PAGE in 0.3x TBE; anisotropy temperature not stated; conditions: protein: recombinant; label: 5'-(5,6)-FAM; single strand
TDP1 (wild type), sequence (Q9NUW8 whole entry): as the sequence (Q9NUW8 whole entry) above

With `CC(=O)c1c(O)c(C)c(O)c2c1OC1=CC(=O)C(=C(C)NCCCc3cc(C(C)(C)C)c(O)c(C(C)(C)C)c3)C(=O)C12C` (stereo not drawn) [OL9-116] the IC50 [1] was 1.4 ± 0.4 µM and the IC50 [2] was 3.8 ± 0.8 µM.

AACGTCAGGGTCTTCC (ssDNA) [5'-FAM 16-mer oligonucleotide]: binds [3].
